Measurements from publication PMC10830420, “Structures, functions and adaptations of the human LINE-1 ORF2 protein” (Nature, 2023).
“Also recorded” adds a separate entry of the source.

System: cytosolic RNA:DNA hybrids in L1-transfected HeLa and U2-OS cells
Assay: LINE-1 and RNA:DNA hybrid immunofluorescence
Format: cell-based, human
Conditions: 50 µM, added at the time of transfection, 24 h
Protocol: Constructs all include C-terminal 3C-3xFlag tag on ORF2p and are synthetic ORFeus-Hs[63] sequence except where L1RP is indicated (L1 retinitis pigmentosa locus, AF148856, pLD564[17]). Cells were fixed in methanol and stained 24 h post transfection with the indicated constructs. Images are representative from 4 independent experiments. D4T RTI treatment is 50 µM, added at the time of transfection.
Culture Collection ( AT CC); THP1-Dual and THP1- Dual KO-TREX1 cells were from InvivoGen. All cell lines were maintained at 37 °C and 5% CO2 and validated and tested for mycoplasma. All plasmids and affinity reagents are described in Supplementary Tables 4-5 , respectively and available from Addgene at https://www.addgene.org/browse/article/28243724/.
LINE-1 and RNA:DNA hybrid immunofluorescence […]
induced using 200 µM IPTG overnight at 16°C, purified by sequential Ni-NTA affinity, heparin affinity, and gel filtration, and the monodisperse fraction was concentrated to 7 mg/ml. 150,000 HeLa or U2OS cells were plated on 22 mm glass coverslips in 6-well dishes and transfected with 2 µg of plasmid DNA using Lipofectamine 3000 (Thermo) according to the manufacturer’s instructions, with or without 50 µM d4T. […]
Cells were lysed in ice cold RIPA buffer containing 1x protease inhibitor tablet (Thermo), centrifuged for 10 minutes, and clarified lysates were quantified by BCA assay. […]

SMILES: Cc1cn([C@H]2C=C[C@@H](CO)O2)c(=O)[nH]c1=O [d4T, stavudine]
- formation of cytosolic RNA:DNA hybrids: ablated; also recorded: inhibited
